Key:
Solubility in solvent = assay type: physicochemical
Caenorhabditis elegans = test: Anti-nematode activity, 96 well plate; assay type: in vivo; settings: at 20 μg/ml, observed after 2 days under microscope
Description: (§1) Methanol solution of FKI-1033 substance was added into 96 well plate (Corning Inc., the U.S.), removed off methanol in vacuo, added 250 μl of test medium (lecithin 0.01%, sodium hydrogen carbonate 7.5 mM, potassium chloride 7.5 mM, calcium chloride dihydrate 7.5 mM and magnesium sulfate heptahydrate 7.5 mM) and shaken for 15 min. 50 μl of buffer containing several nauplii of Artemia salina, which were hatched off in the buffer, was added thereto, and about ten nematodes, Caenorhabditis elegans, which were bred on agar medium for growth of nematode, were added thereto.

[1] = molecular target: T1, ryanodine receptor of Periplaneta americana origin (Periplaneta americana, UniProt A0ABQ8T696); test: Ryanodine binding inhibition, crude ryanodine receptor of Periplaneta americana
T1 sequence (A0ABQ8T696 1-1387): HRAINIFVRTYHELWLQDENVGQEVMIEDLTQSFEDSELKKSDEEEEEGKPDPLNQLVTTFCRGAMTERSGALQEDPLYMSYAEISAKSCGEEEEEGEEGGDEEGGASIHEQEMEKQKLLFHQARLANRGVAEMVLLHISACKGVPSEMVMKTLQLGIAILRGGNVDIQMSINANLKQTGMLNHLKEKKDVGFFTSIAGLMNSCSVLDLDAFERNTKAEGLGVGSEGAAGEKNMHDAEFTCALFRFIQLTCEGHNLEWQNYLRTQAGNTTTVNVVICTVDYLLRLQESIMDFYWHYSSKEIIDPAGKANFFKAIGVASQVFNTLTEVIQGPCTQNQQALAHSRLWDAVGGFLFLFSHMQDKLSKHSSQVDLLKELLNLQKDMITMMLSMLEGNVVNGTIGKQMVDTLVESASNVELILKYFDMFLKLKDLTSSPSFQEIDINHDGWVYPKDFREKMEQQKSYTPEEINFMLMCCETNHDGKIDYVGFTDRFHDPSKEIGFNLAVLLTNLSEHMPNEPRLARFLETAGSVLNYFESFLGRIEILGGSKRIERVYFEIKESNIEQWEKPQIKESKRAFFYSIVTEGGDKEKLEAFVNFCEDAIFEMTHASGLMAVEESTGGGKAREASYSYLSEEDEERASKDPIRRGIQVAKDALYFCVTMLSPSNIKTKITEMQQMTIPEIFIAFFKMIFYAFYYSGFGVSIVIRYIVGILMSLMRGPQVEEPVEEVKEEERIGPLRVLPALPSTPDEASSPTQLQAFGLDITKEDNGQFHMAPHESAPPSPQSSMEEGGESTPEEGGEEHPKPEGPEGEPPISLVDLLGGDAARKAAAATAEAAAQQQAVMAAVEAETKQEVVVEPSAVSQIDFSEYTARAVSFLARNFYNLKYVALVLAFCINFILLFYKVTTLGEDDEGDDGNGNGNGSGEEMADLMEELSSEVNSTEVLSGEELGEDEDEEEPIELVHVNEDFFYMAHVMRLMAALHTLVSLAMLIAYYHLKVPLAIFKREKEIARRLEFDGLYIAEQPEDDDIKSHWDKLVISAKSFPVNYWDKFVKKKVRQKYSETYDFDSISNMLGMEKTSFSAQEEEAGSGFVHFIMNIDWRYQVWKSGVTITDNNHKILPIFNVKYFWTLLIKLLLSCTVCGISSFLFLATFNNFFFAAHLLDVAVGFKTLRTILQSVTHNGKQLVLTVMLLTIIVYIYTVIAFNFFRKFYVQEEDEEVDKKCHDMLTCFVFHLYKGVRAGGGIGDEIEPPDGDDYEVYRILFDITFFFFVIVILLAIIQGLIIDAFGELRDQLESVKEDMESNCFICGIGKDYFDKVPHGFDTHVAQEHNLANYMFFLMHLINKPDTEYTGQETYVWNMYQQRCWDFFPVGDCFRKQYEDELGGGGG
Description: (1) Preparation of the Crude Ryanodine Receptor Fraction of the Insect was Performed as Follows.
The thorax and legs of ten adult insects of Periplaneta americana were frozen with liquid nitrogen and finely cut, and homogenized three times in 15 ml of 50 mM Tris HCl buffer (pH 7.4) containing 4 μg/ml leupeptin and 3 μg/ml pepstatin by using a knife homogenizer at 0° C., 24,000 rpm for 30 sec. The homogenate was filtered using double layered cotton cloth and the filtrate was centrifuged at 4° C., 3,000 rpm for 20 minutes. The obtained supernatant was centrifuged at 4° C., 30,000 rpm for 30 minutes and the precipitate suspended in 1 ml of 20 mM Tris HCl buffer (pH 8.0) containing 0.3 M sucrose, 500 μM calcium chloride and 1.5 M potassium chloride and homogenized with glass potter to obtain crude ryanodine receptor fraction. The crude ryanodine receptor fraction was used by diluting about 7 times with the buffer A (20 mM Tris-HCl buffer (pH 8.0) containing 4 μg/ml aprotinin, 4 μgμml leupeptin, 0.3 M sucrose and 500 μM calcium chloride) immediately before use. […]
70 μl of the buffer A, 10 μl of ethanol solution of 0.1 nM ryanodine and 10 μl of 20 nM [9,21-^3H] […] Radioactivity was measured by measuring fluorescence intensity of the filter with using scintillation counter (Wallac Inc. the U.S., MicroBeta™ TriLux)

[2] = system: nauplii of Artemia salina; test: Anti-arthropod activity, 96 well plate; assay type: in vivo; settings: at 20 μg/ml, observed after 2 days under microscope
Description: as §1

[3] = molecular target: ryanodine receptor of mouse origin (Mus musculus, UniProt E9PZQ0); test: Ryanodine binding inhibition, crude mammalian ryanodine receptor
Sequence of ryanodine receptor of mouse origin (E9PZQ0 whole entry): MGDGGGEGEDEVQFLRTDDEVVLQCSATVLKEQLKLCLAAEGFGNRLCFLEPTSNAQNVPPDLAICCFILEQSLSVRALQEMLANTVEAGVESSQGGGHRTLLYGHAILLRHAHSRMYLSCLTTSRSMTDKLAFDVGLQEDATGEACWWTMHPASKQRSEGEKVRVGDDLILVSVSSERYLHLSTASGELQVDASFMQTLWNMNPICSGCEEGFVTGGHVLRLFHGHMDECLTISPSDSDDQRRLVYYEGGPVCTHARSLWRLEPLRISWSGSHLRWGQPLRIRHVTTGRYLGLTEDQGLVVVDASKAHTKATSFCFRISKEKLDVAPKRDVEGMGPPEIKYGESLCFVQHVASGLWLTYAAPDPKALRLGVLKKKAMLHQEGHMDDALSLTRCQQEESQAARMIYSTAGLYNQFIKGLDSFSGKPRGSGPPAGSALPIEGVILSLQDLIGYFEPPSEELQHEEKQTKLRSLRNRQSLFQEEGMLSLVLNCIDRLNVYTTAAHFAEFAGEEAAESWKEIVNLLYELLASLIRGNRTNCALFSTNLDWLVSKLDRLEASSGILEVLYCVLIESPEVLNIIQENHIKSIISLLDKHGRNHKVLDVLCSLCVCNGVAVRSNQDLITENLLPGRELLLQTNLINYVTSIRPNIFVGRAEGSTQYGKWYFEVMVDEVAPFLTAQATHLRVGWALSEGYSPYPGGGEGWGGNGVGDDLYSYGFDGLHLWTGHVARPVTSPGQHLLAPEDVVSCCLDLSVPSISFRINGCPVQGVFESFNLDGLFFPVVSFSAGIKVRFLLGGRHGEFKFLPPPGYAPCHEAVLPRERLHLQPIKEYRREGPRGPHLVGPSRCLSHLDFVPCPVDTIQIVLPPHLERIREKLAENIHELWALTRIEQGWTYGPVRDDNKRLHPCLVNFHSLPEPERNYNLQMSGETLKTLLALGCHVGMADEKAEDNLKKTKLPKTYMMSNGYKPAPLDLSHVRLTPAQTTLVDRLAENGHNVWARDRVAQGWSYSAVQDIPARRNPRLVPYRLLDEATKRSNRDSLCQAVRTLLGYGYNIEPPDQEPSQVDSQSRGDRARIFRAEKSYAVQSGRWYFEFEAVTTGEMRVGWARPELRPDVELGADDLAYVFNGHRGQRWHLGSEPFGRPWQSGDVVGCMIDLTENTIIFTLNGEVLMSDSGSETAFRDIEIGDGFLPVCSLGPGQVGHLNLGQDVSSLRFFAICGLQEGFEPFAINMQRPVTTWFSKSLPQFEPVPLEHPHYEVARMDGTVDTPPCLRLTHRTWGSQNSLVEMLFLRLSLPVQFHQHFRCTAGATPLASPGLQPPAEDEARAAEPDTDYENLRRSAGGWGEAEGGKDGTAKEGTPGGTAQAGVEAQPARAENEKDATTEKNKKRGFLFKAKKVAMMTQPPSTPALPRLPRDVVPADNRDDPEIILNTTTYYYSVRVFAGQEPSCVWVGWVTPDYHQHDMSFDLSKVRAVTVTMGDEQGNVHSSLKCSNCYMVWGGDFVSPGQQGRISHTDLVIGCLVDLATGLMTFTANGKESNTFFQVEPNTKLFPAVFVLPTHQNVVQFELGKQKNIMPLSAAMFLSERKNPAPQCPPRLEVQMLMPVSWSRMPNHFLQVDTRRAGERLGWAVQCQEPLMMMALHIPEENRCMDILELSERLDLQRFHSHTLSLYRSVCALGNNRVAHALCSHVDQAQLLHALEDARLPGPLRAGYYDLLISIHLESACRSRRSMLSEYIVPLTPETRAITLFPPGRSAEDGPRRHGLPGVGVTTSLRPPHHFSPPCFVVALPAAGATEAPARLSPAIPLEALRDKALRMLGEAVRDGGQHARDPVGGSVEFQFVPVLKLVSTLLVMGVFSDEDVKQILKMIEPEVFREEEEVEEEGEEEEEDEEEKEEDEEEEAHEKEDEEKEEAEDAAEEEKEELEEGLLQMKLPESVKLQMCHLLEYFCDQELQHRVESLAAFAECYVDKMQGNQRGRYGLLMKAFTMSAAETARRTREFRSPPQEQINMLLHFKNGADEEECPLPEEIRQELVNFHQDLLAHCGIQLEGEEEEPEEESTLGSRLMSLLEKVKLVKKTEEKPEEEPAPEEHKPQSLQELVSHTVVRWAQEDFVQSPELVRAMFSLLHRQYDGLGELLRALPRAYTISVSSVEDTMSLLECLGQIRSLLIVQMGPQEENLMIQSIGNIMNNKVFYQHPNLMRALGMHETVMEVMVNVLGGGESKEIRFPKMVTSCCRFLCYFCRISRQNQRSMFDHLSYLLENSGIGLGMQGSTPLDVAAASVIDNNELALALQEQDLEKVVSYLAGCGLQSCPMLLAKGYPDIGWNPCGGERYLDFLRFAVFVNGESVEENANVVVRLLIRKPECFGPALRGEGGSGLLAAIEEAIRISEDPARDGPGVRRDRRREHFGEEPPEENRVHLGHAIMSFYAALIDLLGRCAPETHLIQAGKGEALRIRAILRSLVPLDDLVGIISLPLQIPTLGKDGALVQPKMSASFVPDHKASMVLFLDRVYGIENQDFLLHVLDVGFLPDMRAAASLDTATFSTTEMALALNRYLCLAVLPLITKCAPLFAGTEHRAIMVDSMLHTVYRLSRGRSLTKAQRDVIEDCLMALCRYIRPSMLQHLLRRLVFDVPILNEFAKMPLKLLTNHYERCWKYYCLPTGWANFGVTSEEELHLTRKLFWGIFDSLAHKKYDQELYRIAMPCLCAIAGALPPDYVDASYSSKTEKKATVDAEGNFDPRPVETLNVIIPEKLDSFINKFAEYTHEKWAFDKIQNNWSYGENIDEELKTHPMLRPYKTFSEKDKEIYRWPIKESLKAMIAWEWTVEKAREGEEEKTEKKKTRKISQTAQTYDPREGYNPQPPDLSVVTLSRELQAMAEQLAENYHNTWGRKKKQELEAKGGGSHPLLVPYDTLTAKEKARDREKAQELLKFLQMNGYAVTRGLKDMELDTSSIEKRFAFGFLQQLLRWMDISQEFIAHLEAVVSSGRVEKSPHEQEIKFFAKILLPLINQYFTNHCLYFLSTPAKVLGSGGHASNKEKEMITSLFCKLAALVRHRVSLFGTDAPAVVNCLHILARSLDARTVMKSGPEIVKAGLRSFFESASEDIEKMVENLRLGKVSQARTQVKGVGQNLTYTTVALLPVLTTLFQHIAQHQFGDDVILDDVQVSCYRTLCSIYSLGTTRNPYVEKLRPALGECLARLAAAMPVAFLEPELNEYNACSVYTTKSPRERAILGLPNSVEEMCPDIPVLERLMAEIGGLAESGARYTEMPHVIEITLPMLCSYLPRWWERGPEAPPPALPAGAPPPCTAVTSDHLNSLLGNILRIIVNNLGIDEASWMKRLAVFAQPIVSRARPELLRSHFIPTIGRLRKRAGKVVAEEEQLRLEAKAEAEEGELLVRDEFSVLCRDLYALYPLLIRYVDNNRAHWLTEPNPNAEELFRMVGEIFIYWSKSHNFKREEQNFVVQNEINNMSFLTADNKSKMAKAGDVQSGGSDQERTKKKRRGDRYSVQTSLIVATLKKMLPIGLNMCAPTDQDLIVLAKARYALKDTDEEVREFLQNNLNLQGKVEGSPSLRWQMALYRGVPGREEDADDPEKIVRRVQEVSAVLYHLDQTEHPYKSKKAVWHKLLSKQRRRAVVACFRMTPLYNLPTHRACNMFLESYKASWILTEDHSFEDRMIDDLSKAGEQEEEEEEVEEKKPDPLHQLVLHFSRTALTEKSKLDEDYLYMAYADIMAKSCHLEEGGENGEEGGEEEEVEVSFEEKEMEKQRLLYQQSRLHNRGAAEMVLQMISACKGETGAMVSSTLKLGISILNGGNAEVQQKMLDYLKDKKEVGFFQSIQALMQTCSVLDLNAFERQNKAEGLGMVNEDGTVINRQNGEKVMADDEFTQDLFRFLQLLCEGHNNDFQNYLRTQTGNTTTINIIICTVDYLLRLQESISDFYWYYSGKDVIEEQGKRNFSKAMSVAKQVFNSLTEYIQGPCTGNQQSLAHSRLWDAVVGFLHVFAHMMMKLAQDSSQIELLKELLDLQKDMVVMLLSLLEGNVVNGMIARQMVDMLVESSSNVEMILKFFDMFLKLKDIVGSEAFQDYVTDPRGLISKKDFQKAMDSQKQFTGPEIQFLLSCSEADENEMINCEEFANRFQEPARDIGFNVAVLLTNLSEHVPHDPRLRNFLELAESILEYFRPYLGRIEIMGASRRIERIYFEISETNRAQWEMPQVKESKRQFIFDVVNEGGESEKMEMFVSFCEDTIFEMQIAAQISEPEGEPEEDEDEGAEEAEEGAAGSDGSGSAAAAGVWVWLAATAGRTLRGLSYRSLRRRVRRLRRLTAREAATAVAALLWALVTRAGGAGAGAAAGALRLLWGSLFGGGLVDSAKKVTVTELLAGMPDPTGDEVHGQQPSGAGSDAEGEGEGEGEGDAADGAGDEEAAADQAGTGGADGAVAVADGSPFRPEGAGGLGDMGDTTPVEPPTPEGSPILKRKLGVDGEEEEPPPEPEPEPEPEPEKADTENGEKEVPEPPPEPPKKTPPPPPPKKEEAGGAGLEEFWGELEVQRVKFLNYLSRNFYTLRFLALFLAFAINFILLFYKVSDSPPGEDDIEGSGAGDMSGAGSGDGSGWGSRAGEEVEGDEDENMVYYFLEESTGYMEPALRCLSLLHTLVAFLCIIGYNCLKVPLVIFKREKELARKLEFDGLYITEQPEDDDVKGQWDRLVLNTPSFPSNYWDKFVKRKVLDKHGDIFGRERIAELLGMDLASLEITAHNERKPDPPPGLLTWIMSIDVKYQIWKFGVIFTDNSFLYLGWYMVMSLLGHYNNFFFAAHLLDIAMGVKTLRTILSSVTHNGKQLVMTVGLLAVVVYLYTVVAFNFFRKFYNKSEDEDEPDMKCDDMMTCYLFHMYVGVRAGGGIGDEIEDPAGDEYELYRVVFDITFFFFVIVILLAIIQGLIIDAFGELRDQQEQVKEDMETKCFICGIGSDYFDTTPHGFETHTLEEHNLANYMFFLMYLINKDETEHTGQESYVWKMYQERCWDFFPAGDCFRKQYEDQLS
Description: (2) Preparation of Mammalian Crude Ryanodine Receptor Fraction was Performed as Follows.
Muscles of the hind legs of ICR mouse were finely cut, and 3.0 g thereof was homogenized at 0° C., 1,000 rpm for 3×30 sec using glass homogenizer in 15 ml of buffer B (20 mM Tris-HCl buffer (pH 8.0) containing 4 μg/ml aprotinin and 4 μg/ml leupeptin). The homogenate was transferred into the micro test tube, and the glass homogenizer was also washed with the 7.5 ml of buffer B, and the washed solution was also added to the micro test tube, which was stirred, then centrifuged by using ultracentrifuge cooled at 4° C., 25,000×g for 40 min. 2.4 ml of the buffer B was added to the obtained precipitate and suspended to obtain the crude ryanodine receptor fraction of mouse origin.
(4) Binding Activity of Crude Mammalian Ryanodine Receptor was Assayed aAs Follows.
70 μl of the buffer A, 10 μl of ethanol solution of 0.1 nM ryanodine and 10 μl of 20 nM [9,21-^3H] (N) ryanodine were added into the 96 well microplate (Corning Inc. the U.S.). 10 μl of crude ryanodine receptor fraction of mouse origin was added to initiate the reaction, and shaken at room temperature for 90 min. by using microplate mixer. […] Radioactivity was measured by measuring fluorescence intensity of the filter with using scintillation counter (Wallac Inc. the U.S., MicroBeta™ TriLux).

For `CCCCCC1OC(=O)C(C)N(C)C(=O)C(CCCCC)OC(=O)C(C)N(C)C(=O)C(CCCCC)OC(=O)C(C)N(C)C(=O)C(CCCCC)OC(=O)C(C)N(C)C1=O` (stereo not shown) [FKI-1033 substance], the Solubility in solvent (Solubility in solvent; methanol, ethanol, ethyl acetate and chloroform) was “Soluble”, the Solubility in solvent (Solubility in solvent; water and n-hexane) was “Hardly soluble” and the “growth inhibition of the nematodes (Caenorhabditis elegans)” value (Caenorhabditis elegans) was “inhibited growth”. For the same compound, the “potency of ryanodine binding inhibition against the insect ryanodine receptor versus the mammalian ryanodine receptor” value ([1]; insect (Periplaneta americana) vs mammalian (mouse) receptor) was “more than ten times potent”, the IC50 ([1]; read-out: ryanodine binding inhibition activity, IC50, crude ryanodine receptor fraction of Periplaneta americana, [9,21-3H](N) ryanodine, room temperature 90 min) was 4.2 µM and the “growth inhibition of the arthropods (Artemia salina)” value [2] was “inhibited growth”. It also gave an IC50 [3] of 53.9 µM.

— patent US7541336B2 (priority 2002, dated 2009)
